Key:
Assay type in all cases: cell-based
[1] = system: ENL-dependent MOLM13 leukemia cells; assay: Cell viability (CellTiter-Glo), MOLM13 cells; conditions: MOLM13 cells, 0.5, 1, 2 and 4 μM for 72 h
Description: (§1) MV4; 11 (FIG. 13A), MOLM13 (FIG. 13B) and Jurkat (FIG. 13C) cells were seeded at 2×10^5 cells/mL density and treated with DMSO or indicated compounds 0.5, 1, 2 and 4 μM for 72 h. Cell viability was measured using CellTiter-Glo reagent (Promega) and relative cell viability was calculated by normalization to DMSO samples.
(§2) MV4; 11 or MOLM13 cells were seeded at 0.2×10^6 cells/mL density. Cells were treated with DMSO or ENL degraders at indicated concentrations. Each treatment was done in triplicates. After 72 h treatment, 100 μL of cell suspension from each treatment was mixed with 25 μL of CellTiter-Glo reagent (Promega) and incubated for 10 min before the luminescence signals were detected on a plate reader.

[2] = system: ENL-dependent MV4; 11 cells; assay: Cell viability (CellTiter-Glo), MV4; 11 cells
Description: as §1
(§3) ENL-dependent MV4; 11 cells were seeded at 2×10^5 cells/mL density and treated with DMSO or the indicated compounds at 0, 1.25, 2.5, 5 and 10 μM for 72 h. Cell viability was measured using CellTiter-Glo reagent (Promega) and relative cell viability was calculated by normalization to DMSO samples.
as §3, with “11 and ENL-independent Jurkat” for “11”, “or” for “or the”, “10 nM, 100 nM, 1 μM” for “0, 1.25, 2.5, 5”, “3 days (A) or 6 days (B).” for “72 h.”
as §2

ENL [3] = biological target: T1, ENL (Homo sapiens, UniProt Q03111); assay: Western blot of ENL protein levels in MV4; 11 cells; conditions: 11 cells; for ENL protein level after long treatment: 1 μM for 48 and 72 h
T1 construct: Cells were lysed and expression of endogenous ENL was assessed by Western blot analysis; host or cells: MV4;11
T1 sequence (Q03111 1-559): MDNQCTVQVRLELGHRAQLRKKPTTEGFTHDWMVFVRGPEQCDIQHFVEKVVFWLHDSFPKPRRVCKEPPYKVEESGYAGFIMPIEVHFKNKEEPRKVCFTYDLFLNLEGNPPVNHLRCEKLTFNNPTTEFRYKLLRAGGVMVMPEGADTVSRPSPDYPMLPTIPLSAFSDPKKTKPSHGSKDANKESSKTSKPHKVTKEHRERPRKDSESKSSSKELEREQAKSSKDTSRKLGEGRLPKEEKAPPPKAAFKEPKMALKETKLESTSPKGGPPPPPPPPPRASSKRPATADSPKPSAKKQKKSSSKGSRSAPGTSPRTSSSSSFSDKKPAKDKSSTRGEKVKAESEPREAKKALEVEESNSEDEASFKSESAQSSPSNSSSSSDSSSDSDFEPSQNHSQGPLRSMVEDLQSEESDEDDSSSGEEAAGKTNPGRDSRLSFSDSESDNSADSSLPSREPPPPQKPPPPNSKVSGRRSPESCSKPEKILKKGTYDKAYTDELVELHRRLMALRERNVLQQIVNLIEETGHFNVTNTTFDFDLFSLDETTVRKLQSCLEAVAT
Description: MV4; 11 cells were treated with DMSO or the indicated compounds (the same panel of ENL degraders as shown in FIG. 4) at 1 μM and 10 μM for 24 h. Cells were lysed and expression of ENL was assessed by Western blot analysis.
DMSO treated cells were used as control.
MV4; 11 cells were treated with LQ076-122, or LQ081-107 at 0.3, 1, 3, 10, and 30 μM for 24 h. DMSO treated cells were used as control. Cells were lysed and expression of ENL and GAS41 was assessed by Western analysis.
MV4; 11 cells were treated with DMSO or the indicated compounds at 1 μM and 10 μM for 6 h. Cells were lysed and expression of endogenous ENL was assessed by Western blot analysis.
Cells were treated with 1 μM of ENL degrader with or without 1 μM proteasome inhibitor MG132 for 6 h.
(§4) ENL degraders were dissolved in DMSO. DMSO with no degraders was used as the control. 1×10^6 leukemia cells were seeded in 5 mL medium. For prescreening of compounds, each test compound was added to the medium at 1 μM and 10 μM. Cells were collected after 24 h treatment. For the concentration-dependent treatment, candidate compounds were added to the medium at a series of concentration as indicated in figures. Cells were collected after 24 h treatment. For the time-course treatment, candidate compounds were added to the medium at a final concentration of 4 μM (MV4; 11 cells) or 8 μM (MOLM13 cells). Cells were collected at the indicated timepoints (in hours: 12, 16, 20, 24 and 36 h).
(§5) After ENL degrader treatment, cells were collected, lysed, and total cell lysates were used for Western blot. The following primary antibodies were used: ENL (Cell Signaling Technology), GAS41 (Santa Cruz), GAPDH (Santa Cruz), β-actin (Sigma). Blots were detected using HRP-conjugated secondary antibodies.

ENL [4] = biological target: T1, ENL; assay: Western blot of ENL protein levels in Jurkat cells; conditions: for reduction of ENL protein levels: 1 nM to 10 μM for 6 h; for ENL protein level after long treatment: 1 μM for 48 and 72 h
Text: […] DMSO was used as negative control.
as §5

ENL [5] = biological target: T1, ENL; assay: Western blot of ENL protein levels in MOLM13 cells; conditions: for reduction of ENL protein levels: 1 nM to 10 μM for 6 h; for ENL protein level after long treatment: 1 μM for 48 and 72 h
Description: MOLM13 cells were treated with LQ076-122 or LQ081-108 at 0, 0.25, 0.5, 1, 1.5, 2, 2.5, 3, 4 and 8 μM for 24 h.
MOLM13 cells were treated with DMSO or 8 μM of LQ076-122 for 12, 16, 20, 24 and 36 h.
MV4; 11, MOLM13 and Jurkat cells were treated with LQ108-69, LQ108-71, LQ108-72, LQ126-62 and LQ126-63 at 0, 1 nM, 10 nM, 100 nM, 1 μM, and 10 μM doses for 6 h. DMSO was used as negative control.
as §4, §5

[6] = 11 cells, 1.25, 2.5, 5 and 10 μM for 72 h

Compound | suppression of cell growth (relative cell viability) [1] | suppression of cell growth (relative cell viability) ([2]; 11 cells, 0.5, 1, 2 and 4 μM for 72 h) | reduction of ENL protein levels (ENL [3]; 0-8 μM for 24 h) | reduction of ENL protein levels (ENL [3]; 10 μM, 24 h) | reduction of ENL protein levels (ENL [4]) | ENL protein level after long treatment (ENL [4]) | suppression of cell growth (relative cell viability) [2, 6] | reduction of ENL protein levels (ENL [5]) | ENL protein level after long treatment (ENL [5]) | reduction of ENL protein levels (ENL [3]; 1 nM to 10 μM for 6 h) | ENL protein level after long treatment (ENL [3]) | effect of proteasome inhibitor MG132 on the ENL degradation induced by the degrader (ENL [3]; 1 μM degrader with or without 1 μM MG132 for 6 h)
Cc1ncsc1-c1ccc([C@H](C)NC(=O)[C@@H]2C[C@@H](O)CN2C(=O)[C@@H](NC(=O)CCCCCCCCCCCNC(=O)c2ccc(C(=O)Nc3ccc4[nH]c(CN5CCC[C@@H]5C)nc4c3)cc2)C(C)(C)C)cc1 [LQ081-109, N^1-(12-(((S)-1-((2S,4R)-4-hydroxy-2-(((S)-1-(4-(4-methylthiazol-5-yl)phenyl)ethyl)carbamoyl)pyrrolidin-1-yl)-3,3-dimethyl-1-oxobutan-2-yl)amino)-12-oxododecyl)-N^4-(2-(((S)-2-methylpyrrolidin-1-yl)methyl)-1H-benzo[d]imidazol-5-yl)terephthalamide] | selectively suppressed cell growth | selectively suppressed cell growth | reduced ENL protein levels in a concentration-dependent manner | effective in reducing ENL protein levels | – | – | – | – | – | – | – | –
Cc1ncsc1-c1ccc([C@H](CC(=O)NCCCCCCCCNC(=O)c2ccc3c(c2)[C@H](NC(=O)c2cc(-c4ccc(C(=O)N(C)C)c(O)c4)on2)CC3)NC(=O)[C@@H]2C[C@@H](O)CN2C(=O)[C@@H](NC(=O)C2(F)CC2)C(C)(C)C)cc1 [LQ108-71, 5-(4-(dimethylcarbamoyl)-3-hydroxyphenyl)-N—((R)-6-((8-((S)-3-((2S,4R)-1-((S)-2-(1-fluorocyclopropane-1-carboxamido)-3,3-dimethylbutanoyl)-4-hydroxypyrrolidine-2-carboxamido)-3-(4-(4-methylthiazol-5-yl)phenyl)propanamido)octyl)carbamoyl)-2,3-dihydro-1H-inden-1-yl)isoxazole-3-carboxamide] | – | – | – | – | reduced ENL protein levels in a concentration-dependent manner | maintained the ENL protein at low levels | significantly suppressed MV4; 11 cell growth at low micromolar concentration | reduced ENL protein levels in a concentration-dependent manner | maintained the ENL protein at low levels | reduced ENL protein levels in a concentration-dependent manner | maintained the ENL protein at low levels | –
Cc1ncsc1-c1ccc([C@H](CC(=O)NCCCCCCCCCNC(=O)c2ccc3c(c2)[C@H](NC(=O)c2cc(-c4ccc(C(=O)N(C)C)c(O)c4)on2)CC3)NC(=O)[C@@H]2C[C@@H](O)CN2C(=O)[C@@H](NC(=O)C2(F)CC2)C(C)(C)C)cc1 [LQ108-72, 5-(4-(dimethylcarbamoyl)-3-hydroxyphenyl)-N—((R)-6-((9-((S)-3-((2S,4R)-1-((S)-2-(1-fluorocyclopropane-1-carboxamido)-3,3-dimethylbutanoyl)-4-hydroxypyrrolidine-2-carboxamido)-3-(4-(4-methylthiazol-5-yl)phenyl)propanamido)nonyl)carbamoyl)-2,3-dihydro-1H-inden-1-yl)isoxazole-3-carboxamide] | – | – | – | – | reduced ENL protein levels in a concentration-dependent manner | maintained the ENL protein at low levels | significantly suppressed MV4; 11 cell growth at low micromolar concentration | reduced ENL protein levels in a concentration-dependent manner | maintained the ENL protein at low levels | reduced ENL protein levels in a concentration-dependent manner | maintained the ENL protein at low levels | –
Cc1ncsc1-c1ccc(CNC(=O)[C@@H]2C[C@@H](O)CN2C(=O)[C@@H](NC(=O)CCCCCCCCCNC(=O)c2ccc3c(c2)[C@H](NC(=O)c2cc(-c4ccc(C(=O)N(C)C)c(O)c4)on2)CC3)C(C)(C)C)cc1 [LQ126-62, 5-(4-(dimethylcarbamoyl)-3-hydroxyphenyl)-N—((R)-6-((10-(((S)-1-((2S,4R)-4-hydroxy-2-((4-(4-methylthiazol-5-yl)benzyl)carbamoyl)pyrrolidin-1-yl)-3,3-dimethyl-1-oxobutan-2-yl)amino)-10-oxodecyl)carbamoyl)-2,3-dihydro-1H-inden-1-yl)isoxazole-3-carboxamide] | – | – | – | – | reduced ENL protein levels in a concentration-dependent manner | maintained the ENL protein at low levels | significantly suppressed MV4; 11 cell growth at low micromolar concentration | reduced ENL protein levels in a concentration-dependent manner | maintained the ENL protein at low levels | reduced ENL protein levels in a concentration-dependent manner | maintained the ENL protein at low levels | partially blocks the ENL degradation
